In PubChem BioAssay (NCI):
Values joined by “and” are separate entries in the source; they are usually repeats but may differ in a detail not shown here. Identical values can stand only once.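 Five concentrations, 48 hours, 96-well plates. GI50 marks 50% less growth. TGI denotes the concentration required for complete inhibition of growth.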

How the values were obtained:
Assay in all cases: growth of human tumour cells (NCI), 48 h
[1] = test system: ACHN renal
[2] = test system: K-562 leukemia
[3] = test system: MOLT-4 leukemia
[4] = test system: PC-3 prostate
[5] = test system: SK-OV-3 ovarian
[6] = test system: SN12C renal
[7] = test system: T-47D breast
[8] = test system: UACC-257 melanoma
[9] = test system: DMS 114 small cell lung
[10] = test system: M19-MEL melanoma
[11] = test system: DMS 273 small cell lung

Row | Compound | GI50 [1] | TGI [1] | GI50 [2] | TGI [2] | GI50 [3] | TGI [3] | GI50 [4] | TGI [4] | GI50 [5] | TGI [5] | GI50 [6] | TGI [6] | GI50 [7] | TGI [7] | GI50 [8] | TGI [8] | TGI [9] | TGI [10] | TGI [11] | GI50 [10]
1 | CC(C)NCCCn1c(Sc2cc3c(cc2I)OCO3)nc2c(N)ncnc21 | 297 nM | > 100 µM | 70.8 nM | > 100 µM | 0.0915 µM | > 91.9 µM | 133 nM | > 100 µM | 0.0451 µM | > 100 µM | 174 nM | > 100 µM | 155 nM | > 100 µM | 308 nM | 13.5 µM |  |  |  | 
2 | N#Cc1c(N2CCOCC2)nc(=S)[nH]c1-c1ccco1 | 5750 nM | > 100 µM | 24700 nM | > 100 µM | 4.64 µM | 51.1 µM | 190 nM | 3.17 µM | 2.72 µM | 14.7 µM | 4460 nM | > 100 µM | 1300 nM | 5.91 µM | 22400 nM | > 100 µM |  |  |  | 
3 | Cc1ccc(/C=N\NC(=O)c2[nH]c3ccc(F)cc3c2-c2ccccc2)cc1 | 53.8 nM | > 100 µM | 38 nM | 15.5 µM | 0.0421 µM | > 39.5 µM | 34.5 nM | 20.6 µM | 0.0307 µM | 2.19 µM | 43.6 nM | > 100 µM | 1100 nM | > 100 µM | 493 nM | > 100 µM |  |  |  | 
4 | O=C(NC1CCCCC1)NS(=O)(=O)c1ccc2c(c1)CCC2 |  | > 100 µM |  | > 100 µM |  | > 100 µM |  |  |  | > 100 µM |  | > 100 µM |  |  |  | > 100 µM | > 100 µM | > 100 µM |  | 
5 | N#CC(C#N)=C1NC(=O)CC(=O)N1 |  |  |  | > 100 µM |  | > 100 µM |  |  |  | > 100 µM |  | > 100 µM |  |  |  | > 100 µM | > 100 µM | > 100 µM | > 100 µM | 
6 | N#CC1(C(N)=O)C(c2ccc(Cl)cc2)CC(=O)CC1c1ccc(Cl)cc1 (configuration not stated) | 21800 nM | 57.8 µM | 31400 nM | > 100 µM | 17.1 µM | 54.3 µM | 15900 nM | 33.7 µM | 20.3 µM | 45 µM | 19400 nM | 35.3 µM | 17400 nM | 41.8 µM | 17500 nM | 36 µM |  |  |  | 
7 | O=C(Nc1ccc(OCc2nnc(-c3ccc(Cl)cc3)o2)c(F)c1)Nc1ccc(Cl)c(C(F)(F)F)c1 | 2110 nM | 8.52 µM | 2940 nM | 12.6 µM | 2.07 µM | 7.5 µM | 1840 nM | 7.87 µM | 3.3 µM | 12.5 µM | 2020 nM | 7.91 µM | 2210 nM | 8.66 µM | 2710 nM | 11.1 µM |  |  |  | 
8 | C=CC(=O)Nc1cccc(Oc2nc(Nc3ccc(N4CCN(C)CC4)cc3)nc3ccsc23)c1 | 1070 nM | 2.51 µM | 2030 nM and 2150 nM | 4.97 µM and 4.87 µM | 2.53 µM and 1.72 µM | 7.08 µM and 5.53 µM | 2360 nM and 2870 nM | 8.25 µM and 7.33 µM | 0.307 µM and 0.508 µM | > 10 µM and 14 µM | 1580 nM and 1610 nM | 4.35 µM and 4.61 µM | 9720 nM and 5290 nM | > 10 µM and 27 µM | 2600 nM and 1980 nM | 8.59 µM and 3.83 µM |  |  |  | 
9 | Clc1ccc(Nc2nc3ccccc3nc2-c2cccs2)cc1Cl |  | > 100 µM |  |  |  | > 100 µM |  |  |  | > 100 µM |  | > 100 µM |  |  |  | > 100 µM |  | > 100 µM | > 100 µM | 
10 | O=C1NC(=O)C(N2C(=O)c3ccccc3C2=O)CC1O (configuration not stated) | > 100000 nM | > 100 µM | > 100000 nM | > 100 µM | > 100 µM | > 100 µM | > 100000 nM | > 100 µM | > 100 µM | > 100 µM | > 100000 nM | > 100 µM | > 100000 nM | > 100 µM | > 100000 nM | > 100 µM |  |  |  | 
11 | O=C(O)CN1CCN(CC(=O)O)CC(=O)[O][Hg][O]C(=O)C1 | 19600 nM | 34.2 µM | 17900 nM | 44.6 µM | 9.02 µM | 31.9 µM | 16500 nM | 30.5 µM | > 92.2 µM | > 100 µM | 18500 nM | 34.8 µM | 17000 nM | 43.2 µM | 15400 nM | 28.7 µM |  |  |  | 
12 | O=C1C(=C([O-])c2ccccc2)C(=O)c2ccccc21.O=C1C(=C([O-])c2ccccc2)C(=O)c2ccccc21.[Fe+2] | > 100000 nM | > 100 µM | 84900 nM | > 100 µM | > 100 µM | > 100 µM |  |  | > 100 µM | > 100 µM | > 100000 nM | > 100 µM |  |  | > 100000 nM | > 100 µM |  | > 100 µM |  | > 100 µM
13 | CNCCCNCCCCNCCCN1C(=O)c2ccc3c4c(ccc(c24)C1=O)C(=O)N(CCCNCc1ccccc1OC)C3=O | 2860 nM | 30.1 µM | 2780 nM | 34.6 µM | 5.21 µM | 38.5 µM | 7450 nM | 44.4 µM | 6.19 µM | 61.5 µM | 2950 nM | 20.5 µM | 342 nM | 5.97 µM | 1250 nM | 8.07 µM |  |  |  | 
14 | CCCP1(=O)C=C(C)C(=C(Cl)Cl)C(C)=C1 (configuration not stated) |  | > 100 µM |  | > 100 µM |  | 98.6 µM |  |  |  |  |  | 66.7 µM |  |  |  | > 100 µM | > 100 µM | > 100 µM |  | 
15 | COc1cc2c(cc1OCCCn1c(-c3ccccn3)nc3ccccc31)N=C[C@@H]1CCCN1C2=O | 2230 nM | 6.28 µM | 12200 nM | > 55.3 µM | 4.38 µM | > 28.6 µM | 1440 nM | > 30.6 µM | 4.23 µM | 19.6 µM | 3050 nM | 15.1 µM | 2140 nM | 8.13 µM | 2110 nM | 9.42 µM |  |  |  | 
16 | O=C(O)c1ccc(C(=O)c2ccccc2)c(C(=O)O)c1 |  | > 100 µM |  | > 100 µM |  | > 100 µM |  | > 100 µM |  | > 100 µM |  | > 100 µM |  | > 100 µM |  | > 100 µM |  |  |  | 
